Assay results reported in patent US12702689B2, “Anti-inflammatory compositions, and uses thereof” (P.L. THOMAS & CO., INC., priority 2022, dated 2026).

What was measured:
[1] = test system: gut microbiota including Akkermansia; Bifidobacteria; details: in vitro; cited from earlier work
[2] = test system: gut microbiome (Bifidobacterium); details: healthy mice; cited from earlier work
[3] = test system: ovalbumin-induced allergic airway inflammation (lung); test: Lung tissue histology and scoring in OVA allergic airway model; assay type: in vivo, BALB/cJ female mice; details: OVA+AKBA mice, 100 mg/kg AKBA
From the text: Allergic airway phenotype was induced by using an ovalbumin (OVA, hen egg) sensitization and challenge model as previously described with modifications [Beigelman, A. et al. Azithromycin attenuates airway inflammation in a noninfectious mouse model of allergic asthma. Chest 136, 498-506 (2009)]. Briefly (FIG. 1), two groups of mice (OVA control and OVA+AKBA) were sensitized with intraperitoneal ovalbumin plus alum on days 0 and 7, challenged for 3 days (day 14 to day 17) via nebulized OVA at 1% in PBS for 30 mins, and harvested 48 hr after final challenge. Supplementation groups (OVA+AKBA) were given 100 mg/kg of water soluble AKBA (pH 7) (PLT Health Solutions, Morristown, NJ, US) in autoclaved mouse water, via gavage, every other day for 10 days and then every day for the remainder of the experiment (9 days). OVA control and naïve mouse continued to receive normal autoclaved mouse water. Mice were weighted at the beginning and end of the experiment. Experiments involving AKBA were conducted twice, with the first group containing 5 mice per group and the second containing 15 mice per group (5 per group for naive). […]
Lung sectioning and staining was performed by the UConn Health Research Histology Core (Farmington, CT, US). […] Sections from the left lung were evaluated in their entirety and representative were images taken. […]

OVA-specific IgE = test: Serum OVA-specific IgE, anti-OVA ELISA; assay type: in vivo, BALB/cJ female mice; details: OVA+AKBA mice, 100 mg/kg AKBA; at sacrifice; p=0.3223 vs OVA control

CC(=O)O[C@@H]1CC[C@@]2(C)[C@@H](CC[C@]3(C)[C@@H]2C(=O)C=C2[C@@H]4[C@@H](C)[C@H](C)CC[C@]4(C)CC[C@]23C)[C@@]1(C)C(=O)O [AKBA, 3-O-acetyl-11-keto-b-boswellic acid]
effect on certain gut microbiota including Akkermansia [1]: selectively inhibited | feeding effect on Bifidobacteria [1]: no direct feeding effect | relative abundances of Bifidobacterium [2]: increases | histology score: inflammation and airway smooth muscle remodeling ([3]; score 0-3, blinded, p=0.1823 vs OVA control): 2.0±0.49 | histology score: mucus production ([3]; score 0-3, p=0.0278 vs OVA control): 2.0±0.4 | serum OVA-specific IgE (OVA-specific IgE): 1275.98 ± 503.22 ng/mL
